Data reported in PubChem BioAssay (NCI).
Where “and” joins values, the source holds several entries; their conditions need not be identical. Identical values can stand only once.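 Briefly, cells in 96-well plates were exposed to five compound concentrations for 48 h, and endpoints were estimated by linear interpolation. At the GI50, growth is halved. TGI is the concentration that stops growth completely.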

How the values were obtained:
Assay in all cases: NCI anticancer screen, dose series, 48 h
MDA-MB-468 breast = test system: MDA-MB-468 breast
OVCAR-8 ovarian = test system: OVCAR-8 ovarian
SK-MEL-2 melanoma = test system: SK-MEL-2 melanoma
T-47D breast = test system: T-47D breast
TK-10 renal = test system: TK-10 renal
MCF7 breast = test system: MCF7 breast
CCRF-CEM leukemia = test system: CCRF-CEM leukemia
MDA-MB-435 = test system: MDA-MB-435
HL-60(TB) leukemia = test system: HL-60(TB) leukemia
MDA-MB-231 breast = test system: MDA-MB-231 breast
UO-31 renal = test system: UO-31 renal
SK-MEL-28 melanoma = test system: SK-MEL-28 melanoma
COLO 205 colon = test system: COLO 205 colon
HCC-2998 colon = test system: HCC-2998 colon
BT-549 breast = test system: BT-549 breast
SN12C renal = test system: SN12C renal
UACC-62 melanoma = test system: UACC-62 melanoma
SK-MEL-5 melanoma = test system: SK-MEL-5 melanoma
DU-145 prostate = test system: DU-145 prostate
OVCAR-4 ovarian = test system: OVCAR-4 ovarian
UACC-257 melanoma = test system: UACC-257 melanoma
MALME-3M melanoma = test system: MALME-3M melanoma
SR leukemia = test system: SR leukemia
SF-539 CNS = test system: SF-539 CNS
ACHN renal = test system: ACHN renal
M14 melanoma = test system: M14 melanoma
KM12 colon = test system: KM12 colon
MOLT-4 leukemia = test system: MOLT-4 leukemia
HCT-116 colon = test system: HCT-116 colon
SNB-19 CNS = test system: SNB-19 CNS
K-562 leukemia = test system: K-562 leukemia
HT29 colon = test system: HT29 colon
IGROV1 ovarian = test system: IGROV1 ovarian
HCT-15 colon = test system: HCT-15 colon
OVCAR-5 ovarian = test system: OVCAR-5 ovarian

## COc1cccc(C2=C(c3cn(C)c4ccc(Cl)cc34)C(=O)NC2=O)c1
MDA-MB-468 breast
  GI50: 4.17 µM
  TGI: 17.1 µM

## COc1cc(C2C3=C(COC3=O)N(CCO)c3cc4c(cc32)OCO4)cc(OC)c1OC (centres undefined)
MDA-MB-468 breast
  GI50: 0.242 µM and 0.344 µM
  TGI: 0.626 µM and 0.979 µM

## Cc1ccc(C)c(NC2=C(Cl)C(=O)c3nc(C)ccc3C2=O)c1
MDA-MB-468 breast
  GI50: 1.51 µM
  TGI: 3.08 µM

## O=C1/C=C/[C@@H](O)[C@@H]2C[C@@H](O)C[C@H]2/C=C/CCC[C@H](CCOCc2ccccc2)O1
MDA-MB-468 breast
  GI50: < 0.0161 µM
  TGI: 0.0312 µM

## Nc1ccc(S(=O)(=O)c2ccc(N)cc2)cc1
MDA-MB-468 breast
  GI50: > 100 µM
  TGI: > 100 µM

## COc1ccc(-c2cn[nH]c2-c2cc(OC)c(OC)c(OC)c2)cc1OCc1ccccc1
MDA-MB-468 breast
  GI50: 2.18 µM
  TGI: 7.94 µM

## COc1cc(Nc2ccnc(NCCNc3ccnc4cc(Cl)ccc34)n2)cc(OC)c1
MDA-MB-468 breast
  GI50: 1.04 µM
  TGI: 3.33 µM

## O=C(NCCCCCCCCCC[P+](c1ccccc1)(c1ccccc1)c1ccccc1)c1ccc(-n2nc(-c3ccccc3O)nc2-c2ccccc2O)cc1
OVCAR-8 ovarian
  GI50: 0.074 µM
  TGI: 1.22 µM
SK-MEL-2 melanoma
  GI50: 0.133 µM
  TGI: 0.53 µM
T-47D breast
  GI50: 0.0352 µM
  TGI: 0.522 µM
TK-10 renal
  GI50: 0.33 µM
  TGI: 1.5 µM
MCF7 breast
  GI50: 0.0417 µM
  TGI: 0.953 µM
CCRF-CEM leukemia
  GI50: 0.0396 µM
  TGI: > 100 µM
MDA-MB-435
  GI50: 0.0409 µM
  TGI: 1.11 µM
HL-60(TB) leukemia
  GI50: 0.0565 µM
  TGI: 0.461 µM
MDA-MB-231 breast
  GI50: 0.0993 µM
  TGI: 0.728 µM
UO-31 renal
  GI50: 0.428 µM
  TGI: 1.93 µM
SK-MEL-28 melanoma
  GI50: 0.115 µM
  TGI: 1.59 µM
COLO 205 colon
  GI50: 0.0508 µM
  TGI: 0.268 µM
HCC-2998 colon
  GI50: 0.0574 µM
  TGI: 1.43 µM
BT-549 breast
  GI50: 0.104 µM
  TGI: 0.673 µM
SN12C renal
  GI50: 0.0407 µM
  TGI: 0.721 µM
UACC-62 melanoma
  GI50: 0.084 µM
  TGI: 0.568 µM
SK-MEL-5 melanoma
  GI50: 0.165 µM
  TGI: 0.447 µM
DU-145 prostate
  GI50: 0.0464 µM
  TGI: 1.63 µM
OVCAR-4 ovarian
  GI50: 0.18 µM
  TGI: 2.21 µM
UACC-257 melanoma
  GI50: 0.0904 µM
  TGI: 0.792 µM
MALME-3M melanoma
  GI50: 0.0307 µM
  TGI: 0.19 µM
SR leukemia
  GI50: < 0.0191 µM
  TGI: > 40.5 µM
SF-539 CNS
  GI50: 0.172 µM
  TGI: 0.716 µM
ACHN renal
  GI50: 0.379 µM
  TGI: 1.36 µM
M14 melanoma
  GI50: 0.0825 µM
  TGI: 1.32 µM
KM12 colon
  GI50: 0.203 µM
  TGI: 1.34 µM
MOLT-4 leukemia
  GI50: 0.0585 µM
  TGI: 1.43 µM
MDA-MB-468 breast
  GI50: 0.0255 µM
  TGI: 0.121 µM
HCT-116 colon
  GI50: 0.0377 µM
  TGI: 1.08 µM
SNB-19 CNS
  GI50: 0.0505 µM
  TGI: 1.17 µM
K-562 leukemia
  GI50: 0.0449 µM
  TGI: 3.21 µM
HT29 colon
  GI50: 0.0401 µM
  TGI: 0.789 µM
IGROV1 ovarian
  GI50: 0.0483 µM
  TGI: 1.18 µM
HCT-15 colon
  GI50: 0.566 µM
  TGI: 2.48 µM
OVCAR-5 ovarian
  GI50: 0.192 µM
  TGI: 0.926 µM
